In US9617246B2, “Thioether-piperidinyl orexin receptor antagonists” (MERCK SHARP & DOHME CORP., priority 2013, dated 2017):

What was measured:
[1] = target: human orexin-2 receptor (Homo sapiens (Human), UniProt O43614); assay: FLIPR Ca2+ Flux Assay, orexin-2 receptor; format: cell-based; details: CHO cells, agonist 70 pM Ala-6,12 human orexin-A; read-out: hOX2R FLIPR IC50
Experimental: The utility of the compounds in accordance with the present invention as orexin receptor OX1R and/or OX2R antagonists may be readily determined without undue experimentation by methodology well known in the art, including the “FLIPR Ca^2+ Flux Assay” (Okumura et al., Biochem. Biophys. Res. Comm. 280:976-981, 2001). In a typical experiment the OX1 and OX2 receptor antagonistic activity of the compounds of the present invention was determined in accordance with the following experimental method. For intracellular calcium measurements, Chinese hamster ovary (CHO) cells expressing the rat orexin-1 receptor or the human orexin-2 receptor, are grown in Iscove's modified DMEM containing 2 mM L-glutamine, […], 1% hypoxanthine-thymidine supplement, 100 U/ml penicillin, 100 μg/ml streptomycin and 10% heat-inactivated fetal calf serum (FCS). The cells are seeded at 20,000 cells/well into Becton-Dickinson black 384-well clear bottom sterile plates coated with poly-D-lysine. All reagents were from GIBCO-Invitrogen Corp. The seeded plates are incubated overnight at 37° C. and 5% CO2. Ala-6,12 human orexin-A as the agonist is prepared as a 1 mM stock solution in 1% bovine serum albumin (BSA) and diluted in assay buffer (HBSS containing 20 mM HEPES, 0.1% BSA and 2.5 mM probenecid, pH7.4) for use in the assay at a final concentration of 70 pM. Test compounds are prepared as 10 mM stock solution in DMSO, then diluted in 384-well plates, first in DMSO, then assay buffer. On the day of the assay, cells are washed 3 times with 100 μl assay buffer and then incubated for 60 min (37° C., 5% CO2) in 60 μl assay buffer containing 1 μM Fluo-4AM ester, 0.02% pluronic acid, and 1% BSA. The dye loading solution is then aspirated and cells are washed 3 times with 100 μl assay buffer. 30 μl of that same buffer is left in each well. Within the Fluorescent Imaging Plate Reader (FLIPR, Molecular Devices), test compounds are added to the plate in a volume of 25 μl, incubated for 5 min and finally 25 μl of agonist is added. Fluorescence is measured for each well at 1 second intervals for 5 minutes and the height of each fluorescence peak is compared to the height of the fluorescence peak induced by 70 pM Ala-6,12 orexin-A with buffer in place of antagonist. For each antagonist, IC50 value (the concentration of compound needed to inhibit 50% of the agonist response) is determined. Alternatively, compound potency can be assessed by a radioligand binding assay (described in Bergman et. al. Bioorg. Med. Chem. Lett. 2008, 18, 1425-1430) in which the inhibition constant (Ki) is determined in membranes prepared from CHO cells expressing either the OX1 or OX2 receptor. The intrinsic orexin receptor antagonist activity of a compound which may be used in the present invention may be determined by these assays.

[2] = target: hOX1R (Homo sapiens, UniProt O43613); assay: FLIPR Ca2+ Flux Assay, orexin-1 receptor; format: cell-based; details: CHO cells, agonist 70 pM Ala-6,12 human orexin-A

human orexin-2 receptor, sequence (O43614 whole entry): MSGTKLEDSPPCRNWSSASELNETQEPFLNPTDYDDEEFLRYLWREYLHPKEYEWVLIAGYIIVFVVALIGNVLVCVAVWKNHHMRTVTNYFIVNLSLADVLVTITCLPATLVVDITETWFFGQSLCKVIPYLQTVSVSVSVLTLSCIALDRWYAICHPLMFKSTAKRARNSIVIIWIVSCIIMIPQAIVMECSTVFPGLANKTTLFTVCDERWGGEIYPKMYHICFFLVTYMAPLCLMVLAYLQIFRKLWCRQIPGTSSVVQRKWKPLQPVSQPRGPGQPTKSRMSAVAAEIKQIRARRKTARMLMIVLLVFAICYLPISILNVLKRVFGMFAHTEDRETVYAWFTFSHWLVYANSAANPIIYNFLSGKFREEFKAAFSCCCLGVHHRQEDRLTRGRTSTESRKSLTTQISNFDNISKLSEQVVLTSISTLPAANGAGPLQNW

SMILES | IC50 [1] | IC50 [2]
C[C@@H]1CC[C@@H](Sc2cc(C#N)ccn2)CN1C(=O)c1ccccc1-c1cnn(C)c1 [Example 31, 2-{[(3R,6R)-6-methyl-1-{[2-(1-methyl-1H-pyrazol-4-yl)phenyl]carbonyl}piperidin-3-yl]sulfanyl}pyridine-4-carbonitrile] | 30.3 nM | 3190 nM
C[C@@H]1CC[C@@H](Sc2cc(C#N)ccn2)CN1C(=O)c1cccnc1-c1ccccc1 [Example 32, 2-({(3R,6R)-6-methyl-1-[(2-phenylpyridin-3-yl)carbonyl]piperidin-3-yl}sulfanyl)pyridine-4-carbonitrile] | 71.9 nM | 10000 nM
CC(C)Oc1ccccc1C(=O)N1C[C@H](Sc2cc(C#N)ccn2)CC[C@H]1C [Example 33, 2-{[(3R,6R)-6-methyl-1-{[2-(1-methylethoxy)phenyl]carbonyl}piperidin-3-yl]sulfanyl}pyridine-4-carbonitrile] | 29.4 nM | 6840 nM
CSc1ccccc1C(=O)N1C[C@H](Sc2cc(C#N)ccn2)CC[C@H]1C [Example 34, 2-{[(3R,6R)-6-methyl-1-{[2-(methylsulfanyl)phenyl]carbonyl}piperidin-3-yl]sulfanyl}pyridine-4-carbonitrile] | 75.4 nM | 8720 nM
C[C@@H]1CC[C@@H](Sc2cc(C#N)ccn2)CN1C(=O)c1ccccc1C1CCCCO1 (stereo partly drawn) [Example 38, 2-{[(3R,6R)-6-methyl-1-{[2-(tetrahydro-2H-pyran-2-yl)phenyl]carbonyl}piperidin-3-yl]sulfanyl}pyridine-4-carbonitrile] | 36.6 nM | 10000 nM
C[C@@H]1CC[C@@H](Sc2cc(C#N)ccn2)CN1C(=O)c1ccccc1N1CCCC1 [Example 39, 2-({(3R,6R)-6-methyl-1-[(2-pyrrolidin-1-ylphenyl)carbonyl]piperidin-3-yl}sulfanyl)pyridine-4-carbonitrile] | 103 nM | 10000 nM
C[C@@H]1CC[C@@H](Sc2cc(C#N)ccn2)CN1C(=O)c1ccsc1-c1ncccn1 [Example 40, 2-({(3R,6R)-6-Methyl-1-[(2-pyrimidin-2-ylthiophen-3-yl)carbonyl]piperidin-3-yl}sulfanyl)pyridine-4-carbonitrile] | 19 nM | 2240 nM
C[C@@H]1CC[C@@H](Sc2cc(C#N)ccn2)CN1C(=O)c1ccccc1-c1ncccn1 [Example 41, 2-({(3R,6R)-6-methyl-1-[(2-pyrimidin-2-ylphenyl)carbonyl]piperidin-3-yl}sulfanyl)pyridine-4-carbonitrile] | 18.9 nM | 1580 nM
C[C@@H]1CC[C@@H](Sc2cc(C#N)ccn2)CN1C(=O)c1sccc1-c1ncccn1 [Example 42, 2-({(3R,6R)-6-methyl-1-[(3-pyrimidin-2-ylthiophen-2-yl)carbonyl]piperidin-3-yl}sulfanyl)pyridine-4-carbonitrile] | 5.3 nM | 3560 nM
COc1ccc(C(=O)N2C[C@H](Sc3cc(C#N)ccn3)CC[C@H]2C)c(-c2ncccn2)n1 [Example 43, 2-({(3R,6R)-1-[(6-methoxy-2-pyrimidin-2-ylpyridin-3-yl)carbonyl]-6-methylpiperidin-3-yl}sulfanyl)pyridine-4-carbonitrile] | 864 nM | 10000 nM
C[C@@H]1CC[C@@H](Sc2cc(C#N)ccn2)CN1C(=O)c1ccsc1-n1nccn1 [Example 44, 2-{[(3R,6R)-6-Methyl-1-{[2-(2H-1,2,3-triazol-2-yl)thiophen-3-yl]carbonyl}piperidin-3-yl]sulfanyl}pyridine-4-carbonitrile] | 18.8 nM | 3920 nM
C[C@@H]1CC[C@@H](Sc2ncccc2C(=O)O)CN1C(=O)c1ccccc1-n1nccn1 [Example 48, 2-{[(3R,6R)-6-Methyl-1-{[2-(2H-1,2,3-triazol-2-yl)phenyl]carbonyl}piperidin-3-yl]sulfanyl}pyridine-3-carboxylic acid] | 626 nM | 6540 nM
COC(=O)c1c(OC)ccnc1S[C@@H]1CC[C@@H](C)N(C(=O)c2ccccc2-n2nccn2)C1 [Example 49, Methyl 4-methoxy-2-{[(3R,6R)-6-methyl-1-{[2-(2H-1,2,3-triazol-2-yl)phenyl]carbonyl}piperidin-3-yl]sulfanyl}pyridine-3-carboxylate] | 11.1 nM | 73.2 nM
